Data reported in article PMC9317670, “Temporal and Wash-Out Studies Identify Medicines for Malaria Venture Pathogen Box Compounds with Fast-Acting Activity against Both Trypanosoma cruzi and Trypanosoma brucei” (Microorganisms, 2022).
Where two headings read alike, the source gives them in different places.

Legend:
[1] = tested on: T. cruzi Tulahuen strain parasites in 3T3 host cells; experiment: T. cruzi 48 h image-based assay; assay type: cell-based, Trypanosoma cruzi; settings: for Emax / IC50 / Emax % (T. cruzi): 48 h; for Emax: read-out: Emax % (T. cruzi) (converted); for IC50: read-out: IC50 (T. cruzi); for SI (T. cruzi) 3T3: selectivity index in relation to 3T3 host cells, highest dose 3T3 73 µM; for SI (T. cruzi) HEK: selectivity index in relation to HEK293 cells; for SI (T. cruzi) (HEP): selectivity index in relation to HEPG2 cells
[2] = tested on: T. cruzi; experiment: T. cruzi compound wash off assay (48 h with compound, wash off, 72 h without); assay type: cell-based, Trypanosoma cruzi; settings: T. cruzi; for Fold Change of IC50, wash off vs 48 h: IC50 from 48 h incubation to IC50 following wash off and further 72 h; for IC50: read-out: IC50 Wash Off
[3] = tested on: HEPG2 cells; experiment: HEPG2 cytotoxicity assay; assay type: cell-based, human; settings: HEPG2, 72 h, NA = not active, highest dose 79 µM unless given; for IC50: read-out: IC50 (HEP) (converted)
[4] = tested on: T. cruzi and T.b. brucei; experiment: Speed of action and cidality classification from temporal and wash off assays; assay type: cell-based, Trypanosoma cruzi, Trypanosoma brucei brucei; settings: for Speed of Action (FA/SA): TC = T. cruzi, TBB = T.b. brucei
[5] = tested on: T. cruzi; experiment: T. cruzi temporal image-based assay, 24 h exposure; assay type: cell-based, Trypanosoma cruzi; settings: for IC50: NA = not active at given concentration, read-out: IC50 24 h T. cruzi
[6] = tested on: T.b. brucei bloodstream 427 strain parasites; experiment: T.b. brucei 72 h REDOX-based (resazurin) viability assay; assay type: cell-based, Trypanosoma brucei brucei; settings: for Emax % (T.b. brucei) / IC50 / Emax: 72 h; for SI (T.b. brucei) HEK: selectivity index in relation to HEK293 cells; for SI (T.b. brucei) (HEP): selectivity index in relation to HEPG2 cells
[7] = tested on: HEK293 cells; experiment: HEK293 cytotoxicity assay; assay type: cell-based, human; settings: HEK293, 72 h, NA = not active, highest dose 79 µM unless given
[8] = tested on: T.b. brucei; experiment: T.b. brucei temporal viability (time-kill) assay, 24 h, PrestoBlue; assay type: cell-based, Trypanosoma brucei brucei; settings: for IC50: read-out: IC50 24 h T.b. brucei; for Emax: read-out: Emax 24 h T.b. brucei (converted)
Method: Time-kill assays was undertaken as previously described, using the REDOX reagent PrestoBlue® [24]. […] Control compounds were added at the same concentrations at outlined for the resazurin-based assays.

[9] = tested on: T.b. brucei; experiment: T.b. brucei temporal viability (time-kill) assay, 48 h, PrestoBlue; assay type: cell-based, Trypanosoma brucei brucei; settings: for IC50: read-out: IC50 48 h T.b. brucei; for Emax: read-out: Emax 48 h T.b. brucei (converted)
[10] = tested on: T.b. gambiense STIB930; experiment: T.b. gambiense STIB930 assay, 72 h; assay type: cell-based; settings: Trypanosoma brucei, unit inferred, read-out: IC50 T. Bg STIB930 (T.b. gambiense)
[11] = Trypanosoma cruzi, 48 h incubation, wash off, further 72 h
[12] = 48 h incubation, wash off, further 72 h

Compound	Emax ([1]; Trypanosoma cruzi, TULAHUEN)	IC50 ([1]; Trypanosoma cruzi, TULAHUEN)	SI (T. cruzi) 3T3 [1]	Fold Change of IC50, wash off vs 48 h [2]	IC50 [2, 11]	Speed of Action (FA/SA) [4]	IC50 ([5]; Trypanosoma cruzi)	Emax % (T. cruzi) [1]	IC50 [1]	SI (T. cruzi) HEK [1]	SI (T. cruzi) (HEP) [1]	Emax % (T.b. brucei) [6]	IC50 [6]	SI (T.b. brucei) HEK [6]	SI (T.b. brucei) (HEP) [6]	IC50 [7]	Emax 24 h T.b. brucei [8]	IC50 [8]	Emax Wash Off [2, 12]	IC50 [2, 12]	further results
O=C(Cn1ccnc1[N+](=O)[O-])NCc1ccccc1 [Benznidazole, reference compound]	100%	3400 ± 710 nM	>37	0.29 fold	1200 ± 110 nM	FA (Fast-acting (FA) = IC50 value can be determined following 24 h incubation, <10-fold difference in the IC50 value from 24 to 72 h)	4700 ± 1400 nM	–	–	–	–	–	–	–	–	–	–	–	–	–	IC50 (HEP) [3]: NT (NA at 127 µM)
CN(C)c1cc(NC(=O)Nc2ccccc2)c2ccccc2n1 [MMV 006901]	–	–	>60 ^4	–	–	–	–	100%	1200 ± 110 nM	15	7.1	99%	4900 ± 8.5 nM	3.7	1.8	18000 ± 810 nM	–	–	–	–	IC50 [3]: 9800 nM
OCCc1ccc(Nc2nccc(-c3nnc4ccccn34)n2)cc1 [MMV 028694]	–	–	>7.8	1.2 fold	–	SA (TC)	–	98%	9400 ± 1800 nM	1.0 (NT)	–	100%	830 ± 57 nM	12	–	9700 ± 50 nM	87%	700 ± 190 nM	98%	12000 ± 1800 nM	Emax % (T. cruzi) ([1]; listed as MMV028694): > 95%; SI (T. cruzi) 3T3 ([1]; listed as MMV028694): > 7.8; SI (T. cruzi) HEK ([1]; listed as MMV028694): 1; Emax 48 h T.b. brucei [9]: 100%; IC50 [9]: 710 ± 130 nM
O=C(Nc1ccc2c(c1)B(O)OC2)c1ccccc1C(F)(F)F [MMV 652003]	100%	150 ± 4 nM	>487	3.4 fold	510 ± 80 nM	FA (Fast-acting (FA) = IC50 value can be determined following 24 h incubation, <10-fold difference in the IC50 value from 24 to 72 h)	1280 ± 560 nM	–	–	45	> 548	–	–	74	> 862	–	–	–	–	–	Emax ([8]; Trypanosoma brucei): 100%; IC50 ([8]; Trypanosoma brucei): 450 ± 67 nM; Emax [2, 11]: 99%; Speed of Action (Table 5) ([4]; prioritised compounds, Fast/Slow): Fast; Emax ([6]; Trypanosoma brucei): 100%; IC50 ([6]; Trypanosoma brucei): 92 ± 2.7 nM; Emax ([9]; Trypanosoma brucei): 100%; IC50 ([9]; Trypanosoma brucei): 110 ± 12 nM; Emax ([5]; Trypanosoma cruzi): 93%; IC50 ([7]; Homo sapiens): 6800 ± 204 nM
Cc1cc(C2=NOC(c3cc(Cl)c(F)c(Cl)c3)(C(F)(F)F)C2)ccc1C(=O)NCc1ccc2c(c1)C(C)(C)OB2O (stereo not drawn) [MMV 687776]	–	–	>46	1.0 fold	–	SA (TC)	–	100%	1600 ± 380 nM	8.1	> 50	99%	4300 ± 1300 nM	3.0	> 18	13000 ± 1600 nM	89%	5350 ± 103 nM	100%	1600 ± 64 nM	Emax % (T. cruzi) ([1]; listed as MMV687776): > 95%; SI (T. cruzi) 3T3 ([1]; listed as MMV687776): > 46; Emax 48 h T.b. brucei [9]: 99%; IC50 [9]: 4040 ± 1780 nM
CCCCN(CCCC)c1c(C#N)cc(S(=O)(=O)Nc2ccccc2)cc1C#N [MMV 688467]	–	–	>32	0.91 fold	–	SA (TC)	–	98%	2300 ± 460 nM	> 34	10	99%	310 ± 6.9 nM	> 254	74	–	88%	1200 ± 350 nM	100%	2100 ± 440 nM	Emax % (T. cruzi) ([1]; listed as MMV688467): > 95%; IC50 [3]: 23000 nM; Emax 48 h T.b. brucei [9]: 100%; IC50 [9]: 460 ± 18 nM; Emax 24 h T. cruzi [5]: 75%; IC50 [5]: 4400 ± 730 nM
N=C(N)c1ccc(OCCCCCOc2ccc(C(=N)N)cc2)cc1 [Pentamidine, reference compound]	–	–	–	–	–	FA (Fast-acting (FA) = IC50 value can be determined following 24 h incubation, <10-fold difference in the IC50 value from 24 to 72 h)	–	–	–	–	–	–	–	>216	–	–	–	–	–	–	Emax ([8]; Trypanosoma brucei): 99%; IC50 ([8]; Trypanosoma brucei): 12 ± 2.1 nM; IC50 [10]: 3 ± 2 nM; Emax ([6]; Trypanosoma brucei): 100%; IC50 ([6]; Trypanosoma brucei): 3.1 ± 0.1 nM; Emax ([9]; Trypanosoma brucei): 100%; IC50 ([9]; Trypanosoma brucei): 0.2 ± 0.0021 nM; IC50 HEK [7]: NA at 0.67 µM (NT)
COc1ccc(C[C@H](N)C(=O)N[C@H]2[C@@H](O)[C@H](n3cnc4c(N(C)C)ncnc43)O[C@@H]2CO)cc1 [Puromycin, reference compound]	100%	5600 ± 11 nM	1.2	0.50 fold	2800 ± 130 nM	FA (Fast-acting (FA) = IC50 value can be determined following 24 h incubation, <10-fold difference in the IC50 value from 24 to 72 h)	3500 ± 440 nM	–	–	0.13	0.044	–	–	12	4.0	–	–	–	–	–	Emax ([8]; Trypanosoma brucei): 100%; IC50 ([8]; Trypanosoma brucei): 96 ± 13 nM; IC50 ([3]; Homo sapiens): 250 nM; Emax ([6]; Trypanosoma brucei): 100%; IC50 ([6]; Trypanosoma brucei): 63 ± 0.41 nM; Emax ([9]; Trypanosoma brucei): 100%; IC50 ([9]; Trypanosoma brucei): 97 ± 0.42 nM; IC50 ([7]; Homo sapiens): 730 ± 270 nM
